Among the data in US20020004632A1 (priority 2000, published 2002) are actin-based spine motility, lesion-induced spine degeneration and spine density values, retold here.

Experiment [1] has as its system dendritic spines. Conditions: low levels; cited from earlier work.
Experiment [2] deals with dendritic spines. Conditions: low levels; cited from earlier work. The source holds these as a separate data set.
Experiment [3] has as its system Rat hippocampal CA1 neurons. Briefly: Spine morphology of transfected neurons in cultured hippocampal brain slices, 2PLSM imaging and automatic spine analysis algorithm. The format is cell-based. To be noted: biollistic cotransfection with GFP; compared to the GFP control; at least 5 neurons per group. On the procedure: Cultured hippocampal brain slices were prepared from 7 day old rats. After five days in vitro a small subset of neurons were biollistically transfected (for example, Lo, et al., (1994). Neuronal transfection in brain slices using particle-mediated gene transfer, Neuron 13, 1263-1268, the contents of which are hereby incorporated by reference) with a plasmid carrying the gene for enhanced green fluorescent protein (GFP) (commercially available from Clonetech) At least two days after transfection, slices were transferred to a perfusion chamber for imaging. Labeled neurons were identified and imaged using a custom-made 2PLSM laser scanning microscope (as described in Mainen, Z. F., Maletic-Savatic, M., Shi, S. H., Hayashi, Y., Malinow, R., and Svoboda, K. (1999), Two-photon imaging in living brain slices, Methods 18, 231-239, the contents of which are hereby incorporated by reference). The light source was a Ti:sapphire laser running at a wavelength of ≈990 nm (repetition frequency 80 MHz; pulse length 150 fs). The average power delivered to the backfocal plane of the objective (40x, NA 0.8) varied depending on the imaging depth (range 30 to 150 mW). Fluorescence was detected in whole-field detection mode with a photomultiplier tube.
mTOR kinase controls the phosphorylation of the translation regulators p70^56k and 4E-BP1. […]

With `Cc1onc(O)c1CC(N)C(=O)O` (stereo not drawn) [AMPA, alpha-amino-3-hydroxy-5-methyl-4-isoxalone], in the experiment on dendritic spines [1], the actin-based spine motility entry was “abolished”. Moreover, the lesion-induced spine degeneration result in the experiment on dendritic spines [2] is reported as “block”.
Consider `N[C@@H](CCC(=O)O)C(=O)O` [glutamate], for which the actin-based spine motility result with dendritic spines [1] is “abolished”.
For “mTOR wt: wild-type mTOR kinase expressed from a plasmid transfected by biollistic gene transfer”, the spine density entry in experiment [3] was “increased”.
